# Entries after “also recorded” stand apart in the source; their conditions may differ. Positions of bridges follow the written chain, without caps; N, C: chain ends. No end group written: not given here.
# Tests used:
# [1] = test system: Lamina I or II neurons in the dorsal horn; test: whole-cell patch clamp recording in spinal cord slices with intact dorsal root afferents from Chung models (Example 1); format: cell-based, rat
# Procedure: An in vitro spinal cord slice with intact dorsal root afferents combined with single-cell whole-cell patch claim electrophysiological recording techniques was used to assess the electrophysiological properties of SEQ ID NO:26 (SCRSRPVESSC; also referred to herein as LAT9993).
# Spinal cord slices were prepared from models of neuropathic pain (Chung models; as previously described in Chung et al., Methods Mol Med. 2004; 99:35-45, the contents of which are incorporated herein by reference) and tested against the peptide of SEQ ID NO:26. Chung model rats, aged 8 to 12 weeks, were housed in an air-conditioned room on a 12 hour light/dark cycle with food and water available ad libitum. The rats were terminally anaesthetized using isofluorane and decapitated. […]
# Whole-cell recordings were performed at 34-35° C. from Lamina I or II neurons in the dorsal horm of the spinal cord slices using Axopatch 1D and/or Multiclamp 700B amplifies and using the “blind” version of the patch-clamp technique. […] Biocytin was included in the patch solution to allow post-recording identification of the recorded neurons. The peptide of SEQ ID NO:26 was applied to the recorded tissue in the tissue bath at concentrations between 0.5 μM and 5 μM.
# Chung model rats = test: Chung model of neuropathic pain, paw withdrawal (Example 2); format: in vivo, rat; conditions: 10 mg/kg orally or intramuscular; 1, 2 and 4 hours post-dosing; n=8
# Procedure: The peptide of SEQ ID NO:26 was administered at 10 mg/kg either orally (PQ) or by intramuscular (IM) injection to Chung model rats and pain was assessed by paw withdrawal. Pre-dosing control; Vehicle: 5% DMSO in PBS. *** p<0.001, compared to the same time points in the Vehicle control group; #p<0.05, compared to SEQ ID NO:26 PO group at the same time point. n=8 for each group.
# An […] Chung model of chronic nerve constriction in rats (Chung et al., Methods Mol. Med. 2004; 99:35-45) was used to assess the effect of SEQ ID NO:26 on neuropathic pain. SEQ ID NO:26 was administered at 10 mg/kg either orally or by intramuscular injection to Chung model rats and pain was assessed by paw withdrawal.
sequence,measurement,setting,value
"SCRSRPVESSC (disulfide 2-11 (inferred); listed as Homo sapiens) [SEQ ID NO:26, cyclic peptide of formula (I) formed by a disulphide bond between the two cysteine residues]",neuronal input resistance (effect in words),"[1]; 1 μM (FIG. 2), bath applied",reduction in neuronal input resistance; also recorded: reversible on washout
same,excitatory postsynaptic potentials (EPSPs),"[1]; 5 μM (FIG. 3), 0.1 Hz, 1 Hz",suppressed
same,pain as measured by paw withdrawal threshold (PWT),Chung model rats,significantly reduced pain

# Reference: patent US11566049B2, “Cyclic peptides and uses thereof” (LATERAL IP PTY LTD, priority 2018, dated 2023)
